# According to patent US9995734B2, “Human T cell line assay for evaluating the immunologic identity of glatiramer acetate preparations” (Mylan Inc., priority 2013, dated 2018):
# Several values for one entry are separate records, joined by “and”; a condition that tells them apart may be missing. Equal values may be shown once.
# Columns and labels:
# Type in all cases: cell-based, human
# Donor 3 COP T-Cell Lines = experiment: ATP proliferation assay (CellTiter Glo), Donor 3 COP T-cell lines, incl. reactivity to non-canonical GA peptides; details: for Non-Canonical Peptide Non-Reactivity: proliferation <2 times no antigen control
# [1] = test system: Donor 1 GMA Expanded T-Cell Lines (222-AG11, 222-AG12, 222-BA11, 222-BC11); experiment: ATP proliferation assay (CellTiter Glo), Donor 1 GMA expanded T-cell lines, incl. reactivity to non-canonical GA peptides; details: for Proliferation (luminescent ATP assay), Mean: T-cell line 222-AG12, autologous B-LCL
# Procedure: Proliferation was evaluated by measuring ATP content using a luminescent method (CellTiter Glo Luminescent Cell Viability Assay, Promega, Madison, Wis., cat. #G7571) or by measuring BrdU uptake by ELISA (Millipore cat. #2752), in both cases following kit instructions. A split well format was used. Cells in each well were resuspended and 65 μl transferred to the wells of each of two new U-bottom 96-well plates, to generate the replicate plates. For the initial screening, the original 96-well plate received mitomycin-treated autologous PBMC as APC plus 10 μg/mL antigen (GA). A first replicate plate received 100 μl., mitomycin-treated PBMC alone (2×10^5), and no antigen, and a second replicate plate received 100 μL mitomycin-treated PBMC plus GA at a final concentration of 10 μg/mL. Therefore, all three plates received autologous APC (PBMC) treated with mitomycin C to prevent cell division. […] The latter two plates were incubated for 3 days at 37° C., 6% CO2 before adding CellTiter Glo or BrdU and measuring signal. IL-2 was added at 10 U/mL to the original 96-well plate for expansion on Day 17. For subsequent screenings, mitomycin-treated EBV-transformed autologous B-LCL (2×10^5 to 5×10^5 cells/mL) were used as APC.
# On Day 24, cells from the wells corresponding to the eight presumptive GA-specific human T-cell lines listed in Table 4 were transferred to a 24-well plate and expanded by stimulating with 10 μg/mL GMA and mitomycin-treated autologous PBMC as APC (3×10^6 per well, i.e., 1.5×10^6/mL). On Day 32 four of the eight lines, 222-BA11, 222-BC11, 222-AG11, and 222-AG12, were stimulated with 0, 1, 10 and 100 μg/mL GMA and tested in a 96-well plate for a proliferative response to GMA using an ATP assay, again using autologous PBMC as APC (2×10^5 per well, i.e., 1×10^6/mL). […] FIGS. 2A and B show the results of the ATP proliferation assay carried out using 222-AG12, 222-BC11, 222-AG11, and 222-BA11 at Day 35 (control=no antigen). FIGS. 3A-C compare the results of ATP proliferation assays carried out after stimulation with varying concentrations of GMA or Copaxone as indicated, using cell lines 222-BA11, 222-BC11, and 222-AG12.
# Donor 1 GMA T-cell line 222-AG12 was assayed for proliferation following stimulation with 0, 1, 10, and 30 μg/mL each of peptides GLT 631, GAT 631, GAT 111, LT 11, GT 11, GL 14, COP, and GMA, at a T-cell concentration of 2×10^5 cells/mL, in the presence of mitomycin C-treated autologous B-LCL. Line 222-AG12 was assayed after 3 rounds of restimulation (4 total stimulations). Proliferation was measured by luminescent ATP assay.
# Donor 3 GMA T-Cell Lines = experiment: ATP proliferation assay (CellTiter Glo), Donor 3 GMA T-cell lines, incl. reactivity to non-canonical GA peptides; details: for proliferation response to non-canonical GA peptides: 0, 1, 3, 10, 30 μg/mL; for Non-Canonical Peptide Non-Reactivity: proliferation <2 times no antigen control; for Non-Canonical Peptide Reactivity: at least one proliferation value >=2 times no antigen control
substance,measurement,setting,value
poly (Glu-Ala-Tyr; 6:3:1) [GAT 631],Non-Canonical Peptide Non-Reactivity,Donor 3 COP T-Cell Lines; 165-B6C,GAT 631
same,Non-Canonical Peptide Non-Reactivity,Donor 3 COP T-Cell Lines; 165-C4C,GAT 631
same,Non-Canonical Peptide Non-Reactivity,Donor 3 COP T-Cell Lines; 165-C7C,GAT 631
same,proliferation response to non-canonical peptides,"Donor 3 COP T-Cell Lines; 165-E3C, separate experiment",did not react
same,Non-Canonical Peptide Non-Reactivity,Donor 3 COP T-Cell Lines; 165-F3C,GAT 631
same,Non-Canonical Peptide Non-Reactivity,Donor 3 COP T-Cell Lines; 165-F6C,GAT 631
same,Non-Canonical Peptide Non-Reactivity,Donor 3 COP T-Cell Lines; 165-U3C (so in the source),GAT 631
same,Nonreactive T-Cell Line,"Donor 3 COP T-Cell Lines; Donor 3 COP lines, stimulation with the non-canonical GA peptide",165-B6C (Donor 3) and 165-C4C (Donor 3) and 165-C7C (Donor 3) and 165-E3C (Donor 3) and 165-F3C (Donor 3) and 165-F6C (Donor 3)
same,"Proliferation (luminescent ATP assay), Mean","Donor 3 COP T-Cell Lines; T-cell line 165-C4C, 1 μg/mL antigen, Day 66 of culture, 0 μg/mL 1881",2489
same,"Proliferation (luminescent ATP assay), Mean","Donor 3 COP T-Cell Lines; T-cell line 165-C4C, 3 μg/mL antigen, Day 66 of culture, 0 μg/mL 1881",2687
same,"Proliferation (luminescent ATP assay), Mean","Donor 3 COP T-Cell Lines; T-cell line 165-C4C, 10 μg/mL antigen, Day 66 of culture, 0 μg/mL 1881",2682
same,"Proliferation (luminescent ATP assay), Mean","Donor 3 COP T-Cell Lines; T-cell line 165-C7C, 1.25 μg/mL antigen, autologous B-LCL",232 RLU
same,"Proliferation (luminescent ATP assay), Mean","Donor 3 COP T-Cell Lines; T-cell line 165-C7C, 2.5 μg/mL antigen, autologous B-LCL",204 RLU
same,"Proliferation (luminescent ATP assay), Mean","Donor 3 COP T-Cell Lines; T-cell line 165-C7C, 5 μg/mL antigen, autologous B-LCL",200 RLU
same,"Proliferation (luminescent ATP assay), Mean","Donor 3 COP T-Cell Lines; T-cell line 165-C7C, 10 μg/mL antigen, autologous B-LCL",184 RLU
same,"Proliferation (luminescent ATP assay), Mean","Donor 3 COP T-Cell Lines; T-cell line 165-F3C, 1 μg/mL antigen, Day 77 of culture, 0 μg/mL 1563",2389
same,"Proliferation (luminescent ATP assay), Mean","Donor 3 COP T-Cell Lines; T-cell line 165-F3C, 3 μg/mL antigen, Day 77 of culture, 0 μg/mL 1563",2249
same,"Proliferation (luminescent ATP assay), Mean","Donor 3 COP T-Cell Lines; T-cell line 165-F3C, 10 μg/mL antigen, Day 77 of culture, 0 μg/mL 1563",2391
same,"Proliferation (luminescent ATP assay), Mean","Donor 3 COP T-Cell Lines; T-cell line 165-F6C, 1.25 μg/mL antigen, Day 76 of culture, No Antigen value 517",516
same,"Proliferation (luminescent ATP assay), Mean","Donor 3 COP T-Cell Lines; T-cell line 165-F6C, 2.5 μg/mL antigen, Day 76 of culture, No Antigen value 517",479
same,"Proliferation (luminescent ATP assay), Mean","Donor 3 COP T-Cell Lines; T-cell line 165-F6C, 5 μg/mL antigen, Day 76 of culture, No Antigen value 517",463
same,"Proliferation (luminescent ATP assay), Mean","Donor 3 COP T-Cell Lines; T-cell line 165-F6C, 10 μg/mL antigen, Day 76 of culture, No Antigen value 517",449
same,Non-Canonical Peptide Non-Reactivity,"[1]; 222-AG12, proliferation <2 times no antigen control",GAT 631
same,Nonreactive T-Cell Line,"[1]; Donor 1 GMA expanded lines, stimulation with the non-canonical GA peptide",222-AG12 (Donor 1)
same,"Proliferation (luminescent ATP assay), Mean",[1]; 1 ug/mL antigen,3442 RLU
same,"Proliferation (luminescent ATP assay), Mean",[1]; 10 ug/mL antigen,3217 RLU
same,"Proliferation (luminescent ATP assay), Mean",[1]; 30 ug/mL antigen,3548 RLU
same,proliferation response to non-canonical GA peptides,"Donor 3 GMA T-Cell Lines; 165-B5G and 165-E7G, Day 81",responded
same,Non-Canonical Peptide Non-Reactivity,Donor 3 GMA T-Cell Lines; 165-B5G,GAT 631
same,Non-Canonical Peptide Non-Reactivity,Donor 3 GMA T-Cell Lines; 165-C5G,GAT 631
same,Non-Canonical Peptide Reactivity,Donor 3 GMA T-Cell Lines; 165-E7G,GAT 631
same,Non-Canonical Peptide Non-Reactivity,Donor 3 GMA T-Cell Lines; 165-E9G,GAT 631
same,Non-Canonical Peptide Non-Reactivity,Donor 3 GMA T-Cell Lines; 165-F5G,GAT 631
same,Non-Canonical Peptide Non-Reactivity,Donor 3 GMA T-Cell Lines; 165-F10G,GAT 631
same,proliferation response to non-canonical GA peptides,"Donor 3 GMA T-Cell Lines; 165-H11G, Day 50",responded
same,Non-Canonical Peptide Reactivity,Donor 3 GMA T-Cell Lines; 165-H11G,GAT 631
same,Reactive T-Cell Line,"Donor 3 GMA T-Cell Lines; Donor 3 GMA lines, at least a 50% increase in proliferation relative to a control after stimulation with the non-canonical GA peptide",165-H11G (Donor 3)
same,Nonreactive T-Cell Line,"Donor 3 GMA T-Cell Lines; Donor 3 GMA lines, stimulation with the non-canonical GA peptide",165-B5G (Donor 3) and 165-C5G (Donor 3) and 165-C8G (Donor 3) and 165-E7G (Donor 3) and 165-E9G (Donor 3) and 165-F5G (Donor 3) and 165-F10G (Donor 3)
same,"Proliferation (luminescent ATP assay), Mean","Donor 3 GMA T-Cell Lines; T-cell line 165-05G, 1 μg/mL antigen, Day 50 of culturing, No Antigen Value 2149",2004 RLU
same,"Proliferation (luminescent ATP assay), Mean","Donor 3 GMA T-Cell Lines; T-cell line 165-05G, 3 μg/mL antigen, Day 50 of culturing, No Antigen Value 2149",2207 RLU
same,"Proliferation (luminescent ATP assay), Mean","Donor 3 GMA T-Cell Lines; T-cell line 165-05G, 10 μg/mL antigen, Day 50 of culturing, No Antigen Value 2149",1928 RLU
same,"Proliferation (luminescent ATP assay), Mean","Donor 3 GMA T-Cell Lines; T-cell line 165-05G, 30 μg/mL antigen, Day 50 of culturing, No Antigen Value 2149",1829 RLU
same,"Proliferation (luminescent ATP assay), Mean","Donor 3 GMA T-Cell Lines; T-cell line 165-B5G, 1 μg/mL antigen, Day 81 of culturing, No Antigen Value 2432",4666 RLU
same,"Proliferation (luminescent ATP assay), Mean","Donor 3 GMA T-Cell Lines; T-cell line 165-B5G, 1.25 μg/mL antigen, Day 55 of culturing, No Antigen Value 846",1133 RLU
same,"Proliferation (luminescent ATP assay), Mean","Donor 3 GMA T-Cell Lines; T-cell line 165-B5G, 2.5 μg/mL antigen, Day 55 of culturing, No Antigen Value 846",1288 RLU
